{"source": "patent US20230068990A1", "about": "“PLATELET STORAGE METHODS AND COMPOSITIONS” (Platefuse, Inc., priority 2020, published 2023)", "key": {"[1]": {"test_system": "washed human platelet suspension", "assay": "Inhibition of collagen-induced platelet aggregation (aggregometer)", "type": "cell-based", "conditions": "washed human platelets, 2 min preincubation, collagen 4 μg/ml, read-out 6 min after induction", "protocol": "Platelet shape change in washed platelets was monitored using an aggregometer and the decrease in light transmittance following addition of an agonist (Huzoor et al., 1993). For the purpose of this analysis, collagen was used as the agonist. Briefly, a washed human platelet suspension was incubated at 37° C. in a Lumi-Aggregometer (Chrono-Log Corporation) with stirring at 900 rpm, followed by the addition of dimethylsulfoxide (DMSO) as a control vehicle, or DMSO containing (S)G04 or (R)G04 (FIG. 1A). (S)G04 and (R)G04 were tested at concentrations of 1, 5, 10, 30 and 50 μM.\nAfter incubating the samples with the respective compound for 2 minutes, platelet aggregation was induced by adding collagen ([…]) and the relative aggregation value was read out at 6 min after the induction. A dose response for each compound was derived.\nIn these experiments, a collagen concentration of 4 μg/ml was used. The IC50 values calculated for (R)G04 and (S)G04 are 40 μM and 4 μM, respectively."}, "[2]": {"assay": "Pharmacokinetic study of (S)G04 in mice, serum UPLC-MS/MS", "type": "in vivo", "conditions": "IV injection of 10 and 50 μM in PAS buffer", "protocol": "Standard (S)G04 was diluted from DMSO stock (50 mM) with PAS buffer into 10 and 50 μM, administered to mice via IV injection, and serum samples were collected at time points 1, 3, 10, 30 min, and stored at −80° C. before analysis. PK samples from mice serum (retro orbital bleed) were usually 20-100 μL.\nA calibration curve in the range of 0-1 μM, i.e. 0, 0.01, 0.05, 0.1, 0.5, 1 μM, was prepared by spiking standard solution ([…] (S)G04 in PAS buffer) into blank mouse serum and then conducting serial dilution accordingly.\nQC samples were prepared in the same way with final concentration of 0.05 and 0.5 μM.\nSamples were prepared by carrying out the following steps. Add 20 μL of mouse serum (PK samples, calibrators and QCs), and 20 μL of internal standard in methanol, vortex for 30 secs. Add 100 μL of ice cold MeOH then vortex for 1 min. Let sit for 5 minutes before submitting to centrifuge for 10 minutes at 21,100×g (RCF) at 4° C. Take 100 μL of the supernatant and transfer to autosampler vial (max recovery, Waters). Put a cap on the vial, and load vials onto UPLC-MS autosampler for analysis. Because organic solvent evaporates relatively quickly at room temperature, samples in organic solvents should not be left at room temperature longer than 6 hr before injection. Set up the UPLC-MS/MS system: cleaning cone, in accordance with the manufacturer's Operation SOP/documents. […]"}, "[3]": {"test_system": "cold-stored human platelets", "assay": "Human platelet recovery after xenotransfusion of cold-stored human platelets into NSG mice", "type": "in vivo, human platelets in NOD/SCID/gc-/- (NSG) mice", "conditions": "10 μM in PAS-3M, cold storage 1-6° C. for 7 or 14 days, followed 24 hours post-transfusion", "protocol": "To assess (S)G04 and (R)G04 prevention of platelet activation in vivo, xenotransfusion was performed of long-term (day 7, FIG. 3 and day 14, FIG. 4) stored solutions by taking an aliquot (equivalent to 1×10^6 platelets) of CFSE-labeled cold-stored human platelets (Acrodose, pooled platelets from four ABO identical donors) that were transfused to conditioned NOD/SCID/gc−/− (NSG) mice and followed for 24 hours post-transfusion.\nFour storage conditions were tested. In all storage conditions, the vehicle was the platelet additive solution PAS-3M (Grifols, Barcelona, Spain). The storage conditions varied as follows (1) room temperature storage in vehicle only (RT-Vehicle), (2) cold storage (1-6° C., average ˜2° C.) in vehicle only (Cold-Vehicle), (3) cold storage in vehicle with 10 μM (S)G04 (Cold-G04-S), (4) cold storage in vehicle with 75 μM (R)G04 (Cold-G04-R).\nData is presented as an average of a triplicate analysis. […] Data is presented as an average of a triplicate analysis."}, "[4]": {"test_system": "congenic murine platelets", "assay": "In vivo clot formation: tail bleeding time of aspirinated mice after platelet transfusion", "conditions": "10 μM, murine platelets stored cold (1-6° C.) 4 hours, 24 hours post-administration of platelets", "protocol": "Next, the influence of G04 ((S)G04 and (R)G04) on in vivo clot formation was examined. Congenic murine platelets were stored in cold (1-6° C.) for 4 hours and then administered to mice 24 hours after administration of aspirin. Bleeding time was measured for aspirinated mice receiving no platelets, vehicle-only platelets stored at room temperature, vehicle-only cold-stored platelets, vehicle+(R)G04 (75 μM) cold-stored platelets, and vehicle+(S)G04 (10 μM) cold-stored platelets. The results were compared to control non-aspirinated mice (Basal)."}}}
{"smiles": "N[C@@H](Cc1c[nH]c2ccccc12)C(=O)N/N=C/c1ccc2nccnc2c1", "note": "[(S)G04]", "values": [{"measurement": "IC50", "setting": "[1]", "value": 4, "unit": "µM"}, {"measurement": "reduction of the injection concentration in 1 minute", "setting": "[2]", "value": "> 100", "unit": "×"}, {"measurement": "survival of cold-stored platelets (recovery and AUC) after xenotransfusion", "setting": "[3]", "value": "completely prevented the decreased survival"}, {"measurement": "bleeding time of aspirinated mice", "setting": "[4]", "value": "completely corrected the bleeding time"}]}
